# Laboratory results: ChEMBL document CHEMBL3414508, “A few atoms make the difference: synthetic, CD, NMR and computational studies on antiviral and antibacterial activities of glycopeptide antibiotic aglycon derivatives” (Eur J Med Chem, 2015)
# Legend:
# Assay type in all cases: functional
# [1] = test system: Staphylococcus epidermidis; test: Antibacterial activity against biofilm producing Staphylococcus epidermidis ATCC 35984 by broth microdilution method
# Staphylococcus aureus [2] = test: Antibacterial activity against methicillin-sensitive Staphylococcus aureus ATCC 29213 by broth microdilution method
# Enterococcus faecalis [3] = test: Antibacterial activity against VanB+ Enterococcus faecalis ATCC 51299 by broth microdilution method
# Enterococcus faecalis [4] = test: Antibacterial activity against VanA+ Enterococcus faecalis 15376 by broth microdilution method
# Bacillus spizizenii = test: Antibacterial activity against Bacillus subtilis ATCC 6633 by broth microdilution method
# [5] = test system: Staphylococcus epidermidis; test: Antibacterial activity against Staphylococcus epidermidis expressing mecA by broth microdilution method
# Staphylococcus aureus [6] = test: Antibacterial activity against methicillin-resistant Staphylococcus aureus ATCC 33591 by broth microdilution method
# Enterococcus faecalis [7] = test: Antibacterial activity against Enterococcus faecalis ATCC 29212 by broth microdilution method
Compound,MIC [1] [µg/mL],MIC (Staphylococcus aureus [2]) [µg/mL],MIC (Enterococcus faecalis [3]) [µg/mL],MIC (Enterococcus faecalis [4]) [µg/mL],MIC (Bacillus spizizenii) [µg/mL],MIC [5] [µg/mL],MIC (Staphylococcus aureus [6]) [µg/mL],MIC (Enterococcus faecalis [7]) [µg/mL]
O=C1N[C@H]2C(=O)N[C@H]3C(=O)N[C@H](C(=O)N[C@H](C(=O)O)c4cc(O)cc(O)c4-c4cc3ccc4O)[C@H](O)c3ccc(c(Cl)c3)Oc3cc2cc(c3O)Oc2ccc(cc2Cl)C[C@H]2NC(=O)[C@H](Nc3c(NCc4ccc(-c5ccccc5)cc4)c(=O)c3=O)c3ccc(O)c(c3)Oc3cc(O)cc(c3)[C@@H]1NC2=O,0.5,2,8,1,8,2,2,1
COC(=O)[C@H]1NC(=O)[C@H]2NC(=O)[C@H](NC(=O)[C@@H]3NC(=O)[C@H]4NC(=O)[C@@H](Cc5ccc(c(Cl)c5)Oc5cc3cc(c5O)Oc3ccc(cc3Cl)[C@H]2O[C@@H]2O[C@H](CO)[C@@H](O)[C@H](O)[C@H]2NC(C)=O)NC(=O)[C@H](N)c2ccc(O)c(c2)Oc2cc(O)cc4c2)c2ccc(O)c(c2)-c2c(O)cc(O)cc21,0.5,0.5,1,0.5,0.5,0.5,1,2
COC(=O)[C@H]1NC(=O)[C@H]2NC(=O)[C@H](NC(=O)[C@@H]3NC(=O)[C@H]4NC(=O)[C@@H](Cc5ccc(c(Cl)c5)Oc5cc3cc(c5O)Oc3ccc(cc3Cl)[C@H]2O[C@@H]2O[C@H](CO)[C@@H](O)[C@H](O)[C@H]2NC(C)=O)NC(=O)[C@H](Nc2c(NCc3ccc(-c5ccccc5)cc3)c(=O)c2=O)c2ccc(O)c(c2)Oc2cc(O)cc4c2)c2ccc(O)c(c2)-c2c(O)cc(O)cc21,0.5,2,0.5,0.5,8,0.5,0.5,0.5
CC(=O)N[C@H]1[C@H](O[C@@H]2c3ccc(c(Cl)c3)Oc3cc4cc(c3O)Oc3ccc(cc3Cl)C[C@H]3NC(=O)[C@H](Nc5c(NCc6ccc(-c7ccccc7)cc6)c(=O)c5=O)c5ccc(O)c(c5)Oc5cc(O)cc(c5)[C@H](NC3=O)C(=O)N[C@H]4C(=O)N[C@H]3C(=O)N[C@@H]2C(=O)N[C@H](C(=O)O)c2cc(O)cc(O)c2-c2cc3ccc2O)O[C@H](CO)[C@@H](O)[C@@H]1O,1,1,8,256,4,1,4,4
Cc1c(O)cc2cc1Oc1cc(ccc1O)[C@@H](N)C(=O)N[C@H]1C(=O)N[C@@H]2C(=O)N[C@H]2C(=O)N[C@H]3C(=O)N[C@H](C(=O)N[C@@H](C(=O)O)c4cc(O)cc(O[C@H]5O[C@H](CO)[C@@H](O)[C@H](O)[C@@H]5O)c4-c4cc3ccc4O)[C@H](O[C@H]3C[C@@H](N)[C@@H](O)[C@H](C)O3)c3ccc(cc3)Oc3cc2cc(c3O[C@H]2O[C@@H](CO[C@H]3O[C@H](C)[C@@H](O)[C@H](O)[C@@H]3O)[C@H](O)[C@@H](O)[C@@H]2O[C@H]2O[C@H](CO)[C@@H](O)[C@H](O)[C@@H]2O[C@H]2O[C@H](CO)[C@@H](O)[C@@H]2O)Oc2ccc(cc2)[C@H]1O [RISTOCETIN],2,128,256,16,16,128,32,4
COc1c(N[C@H]2C(=O)N[C@@H]3Cc4ccc(c(Cl)c4)Oc4cc5cc(c4O)Oc4ccc(cc4Cl)[C@@H](O)[C@@H]4NC(=O)[C@H](NC(=O)[C@@H]5NC(=O)[C@@H](NC3=O)c3cc(O)cc(c3)Oc3cc2ccc3O)c2ccc(O)c(c2)-c2c(O)cc(O)cc2[C@@H](C(=O)O)NC4=O)c(=O)c1=O,2,1,8,2,16,2,2,4
